Data on two molecules can be found in paper PMC4482062 (Nucleic Acids Research, 2015).

In one data set the target is T1, CmoB Y200A mutant (Escherichia coli, UniProt P76291, Y200A).
T1 construct: vector LIC-pET30a) (cleaved yes); made in house; host or cells: Escherichia coli BL21 (DE3)
The data set is described as follows: Isothermal titration calorimetry, Y200A mutant CmoB. It counts as binding. As to the method:
(§1) CmoB was extensively dialyzed for 24 h against binding buffer (20-mM HEPES, pH 7.5) using a dialysis cassette with 10-kDa MWCO (Pierce). Lyophilized Cx-SAM was dissolved in the binding buffer at a final concentration of 1.3 mM. SAM was purchased from Sigma and dissolved in binding buffer at a final concentration of 10 mM. Prior to use, all titration samples were centrifuged for 20 min at 4°C. Isothermal titration calorimetry (ITC) experiments were performed at 15°C using an auto-ITC200 (MicroCal, LLC, Northhampton, MA, USA) in which the reaction cell (202.8 μl) containing CmoB (50 μM and 370 μM for Cx-SAM and SAM, respectively) was titrated with 40 × 1-μl injections of 1.3-mM Cx-SAM or 6.7-mM SAM with an equilibration time of 180 s. Raw injection traces were integrated over time, normalized per mol of ligand injected and corrected for the heat of dilution obtained from the plateau of a titration curve. Titration data were analyzed using a single-site model in Origin (version X) and Igor Pro 5/6. […] Based on the chemical synthesis, the Cx-SAM utilized in the binding assay is a racemic mixture, of which only the S-isomer is capable of acting as a substrate/ligand for CmoB. Therefore, the stoichiometry was fixed at 1:1 and the activity of the ligand was introduced as a fitting parameter for Cx-SAM.
On the technique in general: ITC needs no label: the signal is the heat of the interaction.

Data set [1] has as its target T2, wild-type CmoB (Escherichia coli, UniProt P76291).
T2 construct: vector LIC-pET30a) (cleaved yes); made in house; host or cells: Escherichia coli BL21 (DE3)
The data set is described as follows: In vitro LC-MS-based alkyl transfer assay, wild-type CmoB. It counts as biochemical. As to the method:
The assay solution for SAM-dependent mo5U formation contained 10-mM Tris-HCl (pH 8.0), 4-mM MgCl2, 0.2-mM SAM and 20–25 μg (∼20 μM) of total tRNA prepared from cmoB-mutant E. coli cells in 50 μl. Reaction conditions for Cx-SAM-dependent cmo5U formation assay were identical, with the exception that10-μM Cx-SAM was used in place of SAM. Assays were initiated by addition of 0.1–2-μM CmoB to the above mixtures and subsequently incubated at the room temperature. The reaction was terminated by the addition of 0.1-mg/ml P1 nuclease, followed by incubation at 60°C for at least 1 h. […] Hydrolyzed nucleotides were directly applied to HPLC without further processing for LC-MS analysis as described above.

Data set [2] has as its target T2, wild-type CmoB. The data set is described as follows: Isothermal titration calorimetry, wild-type CmoB. The class given is binding. How it is done: as §1
The target in another data set is T3, CmoB R315A mutant (Escherichia coli, UniProt P76291, R315A).
T3 construct: vector LIC-pET30a) (cleaved yes); made in house; host or cells: Escherichia coli BL21 (DE3)
T3 sequence (P76291 whole entry R315A): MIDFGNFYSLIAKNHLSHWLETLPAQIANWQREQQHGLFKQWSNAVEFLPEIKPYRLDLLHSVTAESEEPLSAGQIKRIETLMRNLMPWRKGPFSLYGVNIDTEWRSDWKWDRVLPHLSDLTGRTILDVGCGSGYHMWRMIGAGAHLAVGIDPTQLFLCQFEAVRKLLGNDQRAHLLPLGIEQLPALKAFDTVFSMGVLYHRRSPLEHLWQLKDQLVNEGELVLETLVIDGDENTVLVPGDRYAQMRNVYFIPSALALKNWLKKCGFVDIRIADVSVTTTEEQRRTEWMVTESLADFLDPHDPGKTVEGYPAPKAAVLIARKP
Kind of data set: Isothermal titration calorimetry, R315A mutant CmoB. It counts as binding. As to the method: as §1

The target in another data set is T4, CmoB K91A mutant (Escherichia coli, UniProt P76291, K91A).
T4 construct: vector LIC-pET30a) (cleaved yes); made in house; host or cells: Escherichia coli BL21 (DE3)
T4 sequence (P76291 whole entry K91A): as the sequence (P76291 whole entry R315A) above, with K91A, A315R counted along it
The data set is described as follows: Isothermal titration calorimetry, K91A mutant CmoB. It counts as binding. The settings on record: K91A. As to the method:
as §1
The titration curve was analyzed using macroscopic binding constants and enthalpies describing binding of n-molecules of Cx-SAM to tetrameric mutant CmoB. Initially, the titration curve was analyzed with all possible values of n (=1~4). […] Therefore, the titration curve was analyzed using three sets of binding constants and enthalpies (Supplementary Table 2). The fitted values of the macroscopic binding constants were compared to those expected for a case of non-cooperative binding. For both cooperative and non-cooperative binding, K1 is given by 4Ksite where 4 accounts for the number of ligand binding sites in teterameric CmoB (i.e., statistical factor) and Ksite describes the “intrinsic” affinity of each site. Then, Ksite=3.6x10^4 M^-1. The fitted value of K2 is ~ 8.4-fold higher than that calculated for the case of non-cooperative binding (6Ksite^2=7.7x10^9 M^-2), indicating positive cooperativity involved in binding of the second Cx-SAM. Since the population of K91A with three Cx-SAMs bound is negligible, binding of the third Cx-SAM is deduced to be negatively cooperative.
A possible molecular explanation for such heterogeneous cooperativity involved in the interaction between K91A and Cx-SAM is the presence of (at least) two different types of interface between the subunits in tetrameric K91A which is consistent with the structural model of the CmoB tetramer. In this model (Supplementary Figure 9), the four ligand binding sites are initially equivalent, but binding of the first ligand to any of these four sites differentially affects (increases and decreases) the affinities of the neighboring sites for the second ligand through the different subunit interfaces. This model is a variation of the classical “square” model used in the analysis of the interaction between hemoglobin and oxygen(2) and provides a molecular description of the fitted macroscopic binding constants in terms of the intrinsic affinity (Ksite) and two types of cooperativity (ω+ and ω-): K1=4Ksite; K2=2Ksite^2(1+ω++ω-); K4=Ksite^4(ω+ω-)^2. Then, Ksite=3.6x10^4 M^-1, ω+=23.8, and ω-=0.4. The value of ω is equivalent to a fold-change in the Cx-SAM affinity of a binding site in tetrameric K91A when its neighboring site is already occupied by Cx-SAM.
^aIn this model, the interaction is described by a set of binding events where n-molecules of Cx-SAM bind tetrameric CmoB (K91A) with the corresponding binding constants (Kn) and enthalpies (∆Hn°). Initially, the titration curve was analyzed by this model including all possible values of n (=1~4). […] Therefore, the titration curve was analyzed using three sets of binding constants and enthalpies.

Data set [3] deals with the molecule itself. Kind of data set: AUC; sedimentation velocity, g(s*) distribution fitted to a single-species model; with or without Cx-SAM or SAM.

Where “and” joins values, the source holds several entries; their conditions need not be identical. Equal values may be shown once.

T1 sequence (P76291 whole entry Y200A): as the sequence (P76291 whole entry R315A) above, with Y200A, A315R counted along it

With `C[S+](CC[C@H](N)C(=O)[O-])C[C@H]1O[C@@H](n2cnc3c(N)ncnc32)[C@H](O)[C@@H]1O` (some centres unmarked) [SAM, reference compound], the Kd (in general, the concentration at which binding is half-saturated) was above 119 µM on CmoB Y200A mutant; 210 ± 90 µM on wild-type CmoB [2] (ITC); 200 µM and 208 µM at wild-type CmoB [2] (ITC, 15°C); 140 ± 7.3 µM at CmoB R315A mutant; 11 ± 0.2 µM at CmoB K91A mutant (Kd, ITC, 15°C). The “K (binding constant)” value on CmoB Y200A mutant (ITC, 15°C, single-site model, Y200A) is “N.D.^e (< 8.4 × 10^3) M^−1”; on wild-type CmoB [2] (ITC, 15°C, single-site model), 4.8 ± 2.0 × 10^3 M^−1 and 4.8 ± 2.0 x 10^3 M^−1; at CmoB R315A mutant (ITC, 15°C, single-site model, R315A), 7.1 ± 0.4 x 10^3 M^−1; on CmoB K91A mutant (ITC, 15°C, single-site model), 9.1 ± 0.2 × 10^4 M^−1 and 9.1 ± 0.2 x 10^4 M^−1. In addition, the “ΔG°” value was above -5.1 kcal/mol at CmoB Y200A mutant (ΔG° = −RT lnK, Y200A); -4.85 ± 0.24 kcal/mol on wild-type CmoB [2] (ITC, text); -4.9 ± 0.2 kcal/mol at wild-type CmoB [2] (ΔG° = −RT lnK); -5.1 ± 0.1 kcal/mol at CmoB R315A mutant (ΔG° = −RT lnK, R315A); -6.5 ± 0.1 kcal/mol on CmoB K91A mutant (ΔG° = −RT lnK). Further, at wild-type CmoB [1] (2-μM wild-type CmoB, 0.2-mM SAM as alkyl donor), the “Time to observed mo5U formation” value is 5 h. The “Time to detected trace mo5U with both donors present” value at wild-type CmoB [1] (10-μM Cx-SAM and 2-mM SAM) was determined as 2 h. The “ΔH°” value on wild-type CmoB [2] (ITC) is -0.6 ± 0.1 kcal/mol; at wild-type CmoB [2] (ITC, text) it was -0.62 ± 0.12 kcal/mol; at CmoB R315A mutant (ITC, R315A) it was -11.1 ± 0.2 kcal/mol; at CmoB K91A mutant (ITC), -6.4 ± 0.1 kcal/mol. On wild-type CmoB [2] (ITC, text), the “TΔS°” value worked out at 4.23 ± 0.27 kcal/mol. Also, the “ΔS°” value on wild-type CmoB [2] (ITC, text) is reported as 14.7 ± 0.9 cal·mol^−1·deg^−1; at wild-type CmoB [2] (ΔS° = (ΔH°−ΔG°)/T), 14.7 ± 0.9 cal/mol/deg; at CmoB R315A mutant (ΔS° = (ΔH°−ΔG°)/T, R315A), −21.0 ± 0.8 cal/mol/deg; on CmoB K91A mutant (ΔS° = (ΔH°−ΔG°)/T) it was 0.4 ± 0.1 cal/mol/deg.

B1: CmoB carboxymethyl transferase (enzyme, Escherichia coli (BL21 genomic DNA))
chain: MIDFGNFYSLIAKNHLSHWLETLPAQIANWQREQQHGLFKQWSNAVEFLPEIKPYRLDLLHSVTAESEEPLSAGQIKRIETLMRNLMPWRKGPFSLYGVNIDTEWRSDWKWDRVLPHLSDLTGRTILDVGCGSGYHMWRMIGAGAHLAVGIDPTQLFLCQFEAVRKLLGNDQRAHLLPLGIEQLPALKAFDTVFSMGVLYHRRSPLEHLWQLKDQLVNEGELVLETLVIDGDENTVLVPGDRYAQMRNVYFIPSALALKNWLKKCGFVDIRIADVSVTTTEEQRRTEWMVTESLADFLDPHDPGKTVEGYPAPKRAVLIARKP
notes: CmoB of Escherichia coli, cmoB gene amplified from genomic DNA of E. coli BL21 and cloned into LIC-pET30a; calculated monomer mass 37.01 kD; 319-323 C-alphas aligned per protomer in the structures; A selenomethionine-substituted form (made in E. coli B834, purified the same way) gave the experimental phases; also called wild-type CmoB; source: E. coli BL21 (DE3), purified (Ni-agarose, thrombin …)
Turning to B1, the stoichiometry N (as a rule, the number of molecules, sites or subunits per partner or assembly) in data set [3] worked out at 4.
